Assay results taken from patent EP0465913B1, “Diaminotrifluoromethylpyrimidine derivatives, process for their production and phospholipase A2 inhibitor containing them” (ISHIHARA SANGYO KAISHA, LTD., priority 1990, dated 1992).
Read-outs that look alike come from different tables or passages of the source.

Assays:
[1] = target: T1, Porcine pancreatic phospholipase A2 (Sus scrofa, UniProt P00592); assay: Phospholipase A2 inhibitory activity, method B (L-α-dipalmitoylphosphatidylcholine substrate); assay type: biochemical; conditions: 1,000 ppm, 37°C for 30 minutes, read-out: % inhibition of PLA2 (1,000 ppm)
T1 construct: purchased Boehringer Mannheim·Yamanouchi K.K. 161454·122416
T1 sequence (P00592 23-146): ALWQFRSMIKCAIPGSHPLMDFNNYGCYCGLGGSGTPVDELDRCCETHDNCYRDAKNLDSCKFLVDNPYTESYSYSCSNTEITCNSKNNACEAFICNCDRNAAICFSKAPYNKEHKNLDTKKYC
Protocol: To a solution prepared by dissolving 9.2 mg of L-α-dipalmitoylphosphatidylcholine (manufactured by Nichiyu Liposome K.K.) in 0.5 ml of chloroform, a solution prepared by dissolving 32 mg of sodium cholate (manufactured by Wako Pure Chemical Industries, Ltd.) in 0.5 ml of methanol, was added, followed by mixing. The solvent of the mixture was removed under a nitrogen stream, and then 2.5 ml of a 250 mM sodium chloride solution [prepared by dissolving sodium chloride in a 100 mM Tris-HCl buffer solution {tris(hydroxymethyl)aminomethane (manufactured by Nacalai Tesque K.K.) was adjusted to pH8.0 with hydrochloric acid}] was added thereto, and the mixture was dissolved under stirring to obtain a substrate.
(§1) Porcine pancreatic phospholipase A2 [(161454·122416) manufactured by Boehringer Mannheim·Yamanouchi K.K.] was used.
To a 96 well microtitration plate, 20 µl of a solution containing calcium chloride, bovine serum alubmin (manufactured by Sigma Chemical, Co.) and a Tris-HCl buffer solution (pH8.0) at concentrations of 25 mM, 4.5 mg/ml and 100 mM, respectively, 5 µl of a solution prepared by dissolving 10 mg of a test compound in 500 µl of diemthylsulfoxide, followed by an addition of 500 µl of a 200 mM Tris-HCl buffer solution, 5 µl of an enzyme solution (10 µg/ml) [prepared by dissolving the enzyme in a bovine serum alubmin solution (prepared by dissolving bovine serum alubmin in a 100 mM Tris-HCl buffer solution at a concentration of 1 mg/ml)] and 20 µl of the substrate, were added and reacted at 37°C for 30 minutes. After termination of the reaction, the released free fatty acid was quantitatively analyzed in accordance with the ACS-ACOD (acyl CoA synthetase-acyl CoA oxidase) method [a kit of NEFA C test wako (manufactured by Wako Pure Chemical Industries, Ltd.) was used]. The quantitative analysis was made by means of Microplate ELISA Reader (Model 2550EIA Reader, manufactured by Bio-Rad Laboratories) at a wavelength of 540 nm. Separately, such experiments as mentioned above, were carried out at various concentrations (1 µg/ml, 0.75 µg/ml, 0.5 µg/ml and 0.25 µg/ml) of phospholipase A2 without a test compound. Then, the concentration of the free fatty acid versus the concentration of phospholipase A2 was plotted.
(§2) From this standard curve, the apparent concentration of phospholipase A2 in the case with a test compound, was read. Then, the percent inhibition of the enzyme was calculated by the following formula. Percent inhibition (%) = (l -(A)/(B)) x 100 [formula] • A: Apparent enzyme concentration when a test compound is added. • B: True enzyme concentration when a test compound is added.

carrageenin edema = assay: Inhibitory activity on carrageenin edema; assay type: in vivo, Wistar male rats; conditions: rat, paw swelling volume three hours after carrageenin; for Inhibition rate (%): dose 50 mg/kg orally
Protocol: Using Wistar male rats (body weight: about 100 g), each test group consisted of 5 rats. A test compound was mixed with Tween 80 [polyoxyethylenesorbitan monooleate (manufactured by Nacalai Tesque K.K.)], and distilled water was added thereto to obtain a 2% Tween 80 suspension, or it was dissolved in the form of a salt in water to obtain an aqueous solution. Either the suspension or the aqueous solution was orally administered in an amount of 200 mg/kg, 100 mg/kg, 50 mg/kg or 25 mg/kg. One hour later, 0.1 ml of a 1% λ-carrageenin solution dissolved in a physiological saline was injected subcutaneously to the right hind paw of each rat to cause inflamation. Three hours later, the paw volume was measured by a paw volume measuring device (manufactured by Ugobasiee K.K.). A swelling volume was obtained from the difference from the value before the inflammation. Inhibition rate (%) = (l -(F)/(E)) x 100 [formula] • F: Average swelling volume in the group to which a test compound was administered. • E: Average swelling volume in the control group.

[2] = Acute toxicity, intravenous injection (LD50); assay type: in vivo; conditions: mouse, in vivo, ddy male mice, sodium salt, mortality over one week
Protocol: Administration route: Intravenous injection
Using ddy male mice (body weight: 25 - 30 g), each test group consisted of 5 mice. A test compound was dissolved in the form of a sodium salt in a physiological saline or in a 5% glucose aqueous solution, and intravenously injected in an amount of 0.1 ml/10 g body weight. After the injection, the mortality rate was obtained over one week, and the median lethal dose LD50 (mg/kg) was determined.

[3] = tested on: experimental acute pancreatitis model; assay: Effects against acute pancreatitis (Test Example 8, closed duodenal loop method, lesion scores); assay type: in vivo, Crj-CD male rats; conditions: sodium salt, 6 hours after ventrotomy; for inhibition in vivo at 10 mg/kg: Rattus norvegicus, 10 mg/kg single intravenous injection
Protocol: Using Crj-CD male rats, each test group consisted of 3 rats. An experimental acute pancreatitis model was prepared by a closed duodenal loop method under anethesia with halothane (manufactured by Hoechst Japan) and nitrous oxide (manufactured by Sumitomo Seika K.K.) applied by a general inhalation anesthesia machine (Model EM2 and halothane evaporator F-Model). Each compound (subjected to the test in the form of a sodium salt) was continuously intravenously injected into the tail vein in an amount of 0.4 ml/100 g to 0.6 ml/100 g at a rate of 0.05 ml per minute by a pump (Technicon AA II Proportioning Pump III, manufactured by Technicon Instruments Corporation) or rapidly intravenously injected. No injection was made to a control group. Gross pathological examination was conducted upon expiration of 6 hours after the ventrotomy in the case of the group to which the compound was administered. With respect to each of four lesions among pancreatic lesions i.e. petechia, ecchymosis, pancreatic necrosis and abdominal fatty necrosis, the grade and the distribution of lesions were scored with five grades of 0, 0.5, 1, 2 and 3 (severe lesions are 3). The sum of all lesions was designated as scores of pancreatitis lesions, and the sum of the score of petechia and the score of ecchymosis only was designated as scores of hemorrhagic lesions. The pancreatitis inhibition rate (%) and the hemorrhage inhibition rate (%) were obtained by the following formulas, and the results are shown in Table 13. Pancreatitis inhibition rate (%) = (l -(H)/(G)) x 100 [formula] • H: Scores of pancreatitis lesions of the group to which a test compound was administered. • G: Scores of pancreatitis lesions of the control group. Hemorrhage inhibition rate (%) = (l -(J)/(I)) x 100 [formula] • J: Scores of hemorrhagic lesions of the group to which a test compound was administered. • I: Scores of hemorrhagic lesions of the control group.

[4] = target: T1, Porcine pancreatic phospholipase A2; assay: Phospholipase A2 inhibitory activity, method A (egg yolk lecithin substrate); assay type: biochemical; conditions: 1,000 ppm, 37°C for 30 minutes, read-out: % inhibition of PLA2 (1,000 ppm)
Protocol: To 10 mg of egg yolk lecithin (manufactured by Wako Pure Chemical Industries Ltd.), 1 ml of glycerine, 2 ml of a 50 mM Tris-HCl buffer solution (pH7.5) [Tris(hydroxymethyl)aminomethane (manufactured by Nacalai Tesque K.K.) was adjusted to pH7.5 with hydrochloric acid], 0.5 ml of a 150 mM calcium chloride solution (calcium chloride was dissolved in a 50 mM Tris-HCl buffer solution) and 0.5 ml of a 0.05% Triton-X100 (manufactured by Nacalai Tesque K.K.) solution (Triton-X100 was dissolved in a 50 mM Tris-HCl buffer solution), were added and dispersed by an agate mortar or dispersed by an ultrasonic processor (Model W-225, manufactured by Heat System-Ultrasonics, Inc.) for 5 minutes (30W) to obtain a substrate.
as §1
To a 96 well microtitration plate (flat bottom, manufactured by Sumitomo Bakelite Medical Co., Ltd.), 40 µl of the substrate, 5 µl of a solution prepared by dissolving 10 mg of a test compound in 500 µl of dimethylsulfoxide, followed by an addition of 500 µl of a 50 mM Tris-HCl buffer solution, and 5 µl of an enzyme solution of 20 ng/ml (prepared by diluting the enzyme in a 50 mM Tris-HCl buffer solution), were added and reacted at 37°C for 30 minutes. After termination of the reaction, the released free fatty acid was quantitatively analyzed in accordance with the ACS-ACOD (acyl CoA synthetase-acyl CoA oxidase) method [a kit of NEFA C test wako (manufactured by Wako Pure Chemical Industries, Ltd.) was used]. The quantitative analysis was made by means of Microplate ELISA Reader (Model 2550EIA Reader, manufactured by Bio-Rad Laboratories) at a wavelength of 540 nm. Separately, such experiments as mentioned above, were carried out at various concentrations (2 µg/ml, 1 µg/ml and 0.5 µg/ml) of phospholipase A2 without a test compound. Then, the concentration of the free fatty acid versus the concentration of phospholipase A2 was plotted.
as §2

[5] = tested on: increased vascular permeability induced by acetic acid; assay: Inhibitory activity on increased vascular permeability induced by acetic acid (Mouse Whittle method, method C); assay type: in vivo, ddy male mice; conditions: amount of leaked dye
Protocol: Using ddy male mice, each test group consisted of 4 or 5 mice. A test compound was mixed with Tween 80 [polyoxyethylenesorbitan monooleate (manufactured by Nacalai Tesque K.K.)], and distilled water was added thereto to obtain a 2% Tween 80 suspension, or it was dissolved in the form of a salt in water to obtain an aqueous solution. A test compound was orally administered, and upon expiration of one hour from the administration, 0.7% acetic acid was intraperitonially injected to each mouse in an amount of 0.1 ml/10 g, and at the same time, 2% brilliant blue was intravenously injected into the tail vein in an amount of 0.1 ml/20 g. Thirty minutes after the injection of brilliant blue, the cervical vertebrae were dislocated under anesthesia by chloroform, and the abdorminal cavity was washed with 5 ml of a physiological saline. The washing solution was subjected to centrifugal separation at 3,000 rpm for 10 minutes, and the amount of the dye in the supernatant was measured at 600 nm absorbance by Microplate ELISA Reader (Model 2550EIA Reader, manufactured by Bio-Rad Laboratories). The inhibition rate of the amount of leaked dye in the group in which a test compound was administered relative to the control group was obtained by the following formula. Inhibition rate (%) = (l -(C)/(D)) x 100 [formula] • C: Amount of leaked dye in the group to which a test compound was administered. • D: Amount of leaked dye in the control group.

[6] = read-out: Inhibition rate of hemorrhagic lesions (%)
[7] = read-out: Inhibition rate of pancreatitis lesions (%)

| inhibition at 1000 ppm [4] | Structure (SMILES) | inhibition at 1000 ppm [1] | Inhibition rate (%) (carrageenin edema) | LD50 at 168 h ([2]; iv) | inhibition in vivo at 10 mg/kg [3, 6] | inhibition in vivo at 10 mg/kg [3, 7] | also measured |
| --- | --- | --- | --- | --- | --- | --- | --- |
|  | O=C(Nc1cc(C(F)(F)F)cnc1NS(=O)(=O)C(F)(F)F)C1CCCCC1 [compound 91] | 81% | 23% | > 80 mg/kg |  |  |  |
|  | CC=CC=CC(=O)Nc1cc(C(F)(F)F)cnc1NS(C)(=O)=O [compound 73] | 53% | 20% | > 80 mg/kg | 74% | 79% |  |
|  | CS(=O)(=O)Nc1ncc(C(F)(F)F)cc1NC(=O)c1ccc(F)c(F)c1 [compound 77] | 61% | 22% | > 80 mg/kg | 66% | 70% |  |
|  | CS(=O)(=O)Nc1ncc(C(F)(F)F)cc1NC(=O)Cc1cccs1 [compound 61] | 36% |  | > 80 mg/kg | 79% | 64% |  |
| 89% | CNc1ncc(C(F)(F)F)cc1NC(=O)C(F)(F)C(F)(F)F [compound 41] |  |  |  |  |  | Inhibition rate (%) ([5]; dose 100 mg/kg orally): 85% |
| 37% | CCCCCCCCS(=O)(=O)Nc1ncc(C(F)(F)F)cc1NC(=O)C(F)(F)C(F)(F)F [compound 23] |  |  |  |  |  | Inhibition rate (%) ([5]; dose 20 mg/kg orally): 33%; inhibition in vivo at 100 mg/kg (carrageenin edema; po, 3 h, dose 100 mg/kg orally, read-out: Inhibition rate (%)): 30% |
| 74% | CCCCCCCCC(=O)Nc1cc(C(F)(F)F)cnc1NS(C)(=O)=O [Compound No. 4] |  |  |  |  |  | Inhibition rate (%) ([5]; dose 50 mg/kg orally): 43% |
|  | CCCOC(=O)Nc1cc(C(F)(F)F)cnc1NS(=O)(=O)C(C)C [compound 106] | 78% | 19% |  | 96% | 97% | LD50 at 168 h [2]: > 20 mg/kg |
| 74% | CCS(=O)(=O)Nc1ncc(C(F)(F)F)cc1NC(=O)C(F)(F)Cl [compound 20] |  |  |  |  |  | Inhibition rate (%) ([5]; dose 20 mg/kg orally): 48% |
|  | CC(C)(C)CC(=O)Nc1cc(C(F)(F)F)cnc1NS(C)(=O)=O [compound 7] | 50% |  |  |  |  | Inhibition rate (%) ([5]; dose 20 mg/kg orally): 53% |
|  | CS(=O)(=O)Nc1ncc(C(F)(F)F)cc1NC(=O)Cc1ccccc1 [compound 60] | 41% | 27% | > 60 mg/kg | 92% | 94% |  |
|  | CS(=O)(=O)Nc1ncc(C(F)(F)F)cc1NC(=O)C1CC=CCC1 (centres unmarked) [compound 68] | 81% |  | > 80 mg/kg | 74% | 77% |  |

| Structure (SMILES) | inhibition at 1000 ppm [4] | inhibition at 1000 ppm [1] | Inhibition rate (%) (carrageenin edema) | LD50 at 168 h ([2]; iv) | inhibition in vivo at 10 mg/kg [3, 6] | inhibition in vivo at 10 mg/kg [3, 7] | also measured |
| --- | --- | --- | --- | --- | --- | --- | --- |
| CS(=O)(=O)Nc1ncc(C(F)(F)F)cc1NC(=O)C(F)(F)F [compound 12] | 89% |  |  | > 150 mg/kg |  |  |  |
| O=C(Nc1cc(C(F)(F)F)cnc1NS(=O)(=O)c1ccccc1)C(F)(F)F [compound 24] | 66% |  |  | > 150 mg/kg |  |  | Inhibition rate of hemorrhagic lesions (%) ([3]; 11 mg/kg continuous intravenous injection): 68% |
| CCOC(=O)NC(=S)Nc1cc(C(F)(F)F)cnc1NS(=O)(=O)CC [compound 21] | 62% |  |  |  |  |  | Inhibition rate of hemorrhagic lesions (%) ([3]; 27 mg/kg continuous intravenous injection): 57%; LD50 at 168 h [2]: > 75 mg/kg |
